Measured values published in patent US20260283990A1, “COMPOUNDS FOR TREATING RETT SYNDROME AND OTHER DISORDERS” (UNRAVEL BIOSCIENCES, INC., priority 2023, published 2026).
“Also recorded” adds a separate entry of the source. Read-outs that look alike come from different tables or passages of the source. Square brackets hold non-standard residues; d marks the D form. Peptide text beside a SMILES is read from it. αMeP = C[C@@]1(C(=O)O)CCCN1

Tests used:
[1] = Pharmacokinetic study in C57BL/6J mice (plasma and tissues); assay type: in vivo
mecp2-acss3-2KD tadpoles = assay: Tadpole tracking: double knockdown of MeCP2 and ACSS3 (mecp2-acss3-2KD); assay type: in vivo, Xenopus laevis; settings: 50 μM every other day from 6 dpf, recorded at 15 dpf
Procedure: FIGS. 6A-6C. […] Wild-type (WT), MeCP2 knockdown (mecp2-KD) and double knockdown of MeCP2 and ACSS3 (mecp2-acss3-2KD) tadpoles, were compared in the presence of absence of 50 μM RVL002 added to the swimming media every other day since 6 dpf.
Using our tadpole tracking system, we evaluated the effect of RVL002 on WT, RTT and tadpoles deficient for both MeCP2 and ACSS3 (FIGS. 6A-6C).

HDAC = assay: HDACi activity (statement, no method)
[2] = system: tadpole RTT model animals and wild type controls; assay: Gene expression signatures of vorinostat- and RVL002-treated tadpoles; assay type: in vivo, Xenopus
Text: (§1) Using our tadpole tracking system, we evaluated the effect of vorinostat and RVL002 on WT and RTT tadpoles swimming behavior (FIGS. 4A-4F). WT tadpoles spend most of the time swimming along the outside of the dish and only occasionally cross through the center of the dish, while RTT tadpoles swim more erratically and tend to dart through the center of the dish and stop more frequently (FIG. 4A-4B, n=5 per dish). These abnormal swimming patterns could be related to motor irregularities and seizures seen in human RTT patients. […] The entropy captures deviations in swimming behavior, including distance and area explored. […] We compared the gene expression signatures of vorinostat- and RVL002-treated tadpole RTT model animals and wild type controls. In wild type animals, 100% of genes with significant expression changes (fold change >2, p<0.05) due to vorinostat treatment were accounted for by RVL002 treatment. In RTT animals, RVL002 replicated 92.5% of gene expression changes.

MeCP2-/y mice [3] = assay: Optomotor assay in MeCP2-/y mice treated with RVL002; assay type: in vivo; settings: 50 mg/kg P.O. daily from P34
Procedure: (§2) FIGS. 5A-5B. Mice (KO MeCP2^−/y or WT littermates) were treated with 50 mg/kg P.O. RVL002 daily following the onset of severe symptoms at 34 days post-natal (P34).

RTT tadpoles = assay: Viability measurement in WT and RTT tadpoles; assay type: in vivo, Xenopus; settings: RVL002 100 uM compared with vorinostat 50 uM, n=10 per condition
RTT tadpoles (MeCP2 KD) = assay: Tadpole tracking system: swimming behavior of RTT (MeCP2 KD) tadpoles; assay type: in vivo, Xenopus; settings: for swimming pattern of treated RTT tadpoles: n=5 per dish
Procedure: FIGS. 4A-4F. FIG. 4A) Occupation density plot from tracking tadpoles swimming and resting locations over a 10-minute recording session (n=5 per 10 ml dish, at 30 frames per seconds), where high density means the tadpoles where recorded at that XY coordinate most frequently. FIG. 4A) wild-type tadpoles (WT) normal behavior is to swim along the edge of the dish in an area termed the “outer area”, while the area within the white center circle is termed the “inner area” and is mostly dark. […] Additionally, RTT tadpoles cover less distance in the outer area, preferring to cross the inner area. FIG. 4C) example of multiple parameters derived from the tracking system, highlighting metrics corresponding to behavioral phenotypes. FIG. 4D) one such metric of epoch-based entropy which captures information about the swimming behavior over a recording session and how a group diverges from the others, in this case indicating favorable improvement in RTT tadpole symptoms treated with RVL002 (epoch=15-second). FIG. 4E) one such metric is the inner area circular swimming. Locomotor assays is commonly used in mouse model of neurological diseases, it can also assess the behavior in tadpole models. Both vorinostat and RVL002 reduced the average inner dish circular swimming behavior in KD tadpoles compared to vehicle controls.
(§3) Briefly, Xenopus embryos at the 4-cell stage were microinjected with Cas9 protein and guide RNA complex aimed at 3 sites of the MeCP2 gene corresponding to DNA binding and the mutation locations of the most severe patient cases. Embryos could develop into free-swimming tadpoles, and no effect on viability was observed relative to controls. Tadpoles presented a spectrum of behavioral phenotypes, including seizures. qPCR analysis confirmed a range of MeCP2 KO of 5-95% of the cells, and immunostaining of tissue sections indicated mosaic and overall reduction of MeCP2 protein levels and a-tubulin acetylation (Novak et al. 2022). Based on seizure and behavioral screens in RTT tadpoles, we evaluate the tolerability and efficacy of any number of predicted compounds. The top performing drug is vorinostat, a hydroxamic acid pan-Histone Deacetylase inhibitor (HDACi), approved for cutaneous T cell lymphoma (Novak et al., 2022). […] These six scores are then summed to provide a cumulative severity score from 0-12 (Guy et al., 2001, 2007).
as §1

[4] = system: brain and muscle gene networks and pathways; assay: RNAseq of brain and muscle of dosed mice analysed with BioNav / Reactome; assay type: in vivo, C57B/L6 mice
Procedure: FIGS. 2A-2B. BioNav™ plots organized by chemical structure similarity of 40,000 compounds. Differential scores of predicted drugs mimicking vorinostat- or RVLOO2-dosed mouse brain (FIG. 2A) or femoral muscle (FIG. 2B) are plotted. Cluster of HDAC inhibitors is circled (FIG. 2B).
FIGS. 3A-3E. […] Genes associated with network level changes in mice treated with vorinostat or RVL002 were analyzed and sorted according to Reactome.org pathways (91). RVL002 engages pathways in the brain and muscle tissues similar to those resulting from vorinostat dosing (FIG. 3A). […] RVL002 engages MeCP2 pathways in the brain and muscle tissues (FIG. 3E).
Brain and muscle tissues from these mice were submitted to RNA sequencing (RNAseq) and analyzed on our BioNav™ generated from the network model of 40,000 compounds with transcriptomic data. […] By taking our calculated interacting gene sets we identified genes and networks unique to RVL002 (FIGS. 3A-3E). The gene expression profiles of the brains of mice treated with vorinostat is largely due to its highly brain-permeable metabolite and this profile is closely mimicked by RVL002 while RVL002 increased bioavailability and biodistribution is reflected in a proportionally more extensive number of genes whose expression levels are altered. The top 4 pathways are associated with MeCP2 despite using wild-type C57B/L6 mice (Table 2), and several other pathways associated with MeCP2 are identified, albeit with lower statistical significance (Table 3).

MeCP2-/y mice [5] = assay: Rett cumulative severity score in MeCP2-/y mice treated with RVL002; assay type: in vivo; settings: 50 mg/kg P.O. daily after onset of severe symptoms (P34), vs vehicle
Procedure: as §2
(§4) Briefly, Xenopus embryos at the 4-cell stage were microinjected with Cas9 protein and guide RNA complex aimed at 3 sites of the MeCP2 gene corresponding to DNA binding and the mutation locations of the most severe patient cases. Embryos could develop into free-swimming tadpoles, and no effect on viability was observed relative to controls. Tadpoles presented a spectrum of behavioral phenotypes, including seizures. qPCR analysis confirmed a range of MeCP2 KO of 5-95% of the cells, and immunostaining of tissue sections indicated mosaic and overall reduction of MeCP2 protein levels and a-tubulin acetylation (Novak et al. 2022). Based on seizure and behavioral screens in RTT tadpoles, we evaluate the tolerability and efficacy of any number of predicted compounds. The top performing drug is vorinostat, a hydroxamic acid pan-Histone Deacetylase inhibitor (HDACi), approved for cutaneous T cell lymphoma (Novak et al., 2022). […]
Mice (MeCP2-/y or WT littermates) were treated with 50 mg/kg P.O. RVL002 daily following the onset of severe symptoms as determined by the Rett cumulative severity scoring system (Guy et al., 2001, 2007).

Mecp2-null male mice [6] = settings: cited from earlier work; for Rett cumulative severity score, head-to-head comparison: older mice with extensive symptoms prior to treatment; for efficacy when starting treatment after the onset of symptoms: start P36
RTT tadpole model = assay: Drug screen in the RTT tadpole model (behavior, survival, seizures, toxicity); assay type: in vivo, Xenopus; settings: seizures as readout
Text: as §3
RTT tadpole transcriptomes were compared against wild-type (WT) sibling transcriptomes using our proprietary BioNav™ software, which ranked the entirety of compounds from the National Institute of Health (NIH) Library of Integrated Network-Based Cellular Signatures (LINCS) database (Keenan et al., 2018) that were predicted to shift a RTT state to a healthy state. The top candidates were downselected to include only FDA-approved drugs and screened in the RTT tadpole model using behavior, survival, and seizures as an efficacy readout, together with toxicity phenotypes. […] Vorinostat was selected for more detailed evaluation in tadpoles and mouse models. […] Ciliary morphology was also normalized by drug treatment across the entire body, and vorinostat reduced Ib4+ inflammatory cells in the GI tract (Novak et al., 2022).

tadpole proteome = settings: whole organism Thermal Proteome Profiling; cited from earlier work
[7] = Pharmacokinetic (PK) assay of vorinostat, oral vs. IP; assay type: in vivo
Mecp2-null male mice [8] = assay: Vorinostat and trofinetide in the MeCP2-null mouse model; assay type: in vivo; settings: daily IP from P30
Text: as §4
Using trofinetide as a positive control, we evaluated the feasibility of initiating drug dosing starting at 30 days post-natal (P30), unlike the majority of RTT pre-clinical studies starting before the onset of symptoms. […] We evaluated the comparative efficacy of oral vs. IP dosing of vorinostat in MeCP2-null mice starting at 36 days post-natal (P36), well after the onset of symptoms, to better mimic clinical presentation of RTT patients.

[9] = system: RTT models (MeCP2 deficit); settings: cited from earlier work
microtubule = assay: Microtubule polymerization assays; assay type: biochemical

## O=C(O)CCC(=O)Nc1ccccc1 [RVL002, succinanilic acid]
[1]; mouse, in vivo
  RVL002/vorinostat Ratio of T1/2: 2.6
  RVL002/vorinostat Ratio of Tmax: 0.8
[1]; mouse, in vivo, 50 mg/kg
  biodistribution, crossing the blood brain barrier: better biodistribution including in crossing the blood brain barrier
[1]; mouse, in vivo, ip, 50 mg/kg
  AUC(0-inf): 11600 ng·h/mL
  AUC(0-t): 11800 ng·h/mL
  Cmax: 12300 ng/mL
  Tmax: 0.3 h
  half-life: 3.3 h
mecp2-acss3-2KD tadpoles
  response across exploratory behavior, swimming velocity and number of tadpoles in a school: did not respond
HDAC
  HDACi activity: lacks HDACi activity
[2]; RTT animals
  gene expression changes of vorinostat replicated by RVL002: 92.5%
[2]; wild type animals, fold change >2, p<0.05
  genes with significant expression changes due to vorinostat treatment accounted for by RVL002 treatment: 100%
MeCP2-/y mice [3]
  optomotor assay: delayed the progression in severity of behavioral and physiological phenotypes
RTT tadpoles
  tolerability and viability of RTT tadpoles: well tolerated and improves the viability of RTT tadpoles
RTT tadpoles (MeCP2 KD); RTT KD tadpoles, 50 μM
  reduction in inner dish circular swimming compared to vehicle dosed KDs: 78%
RTT tadpoles (MeCP2 KD); RTT tadpoles, 15-second epoch
  epoch-based entropy of swimming behavior: rescue the behavior of RTT tadpoles
RTT tadpoles (MeCP2 KD); RTT tadpoles
  swimming pattern of treated RTT tadpoles: adopt more circular motion and stop less frequently
[4]; mouse femoral muscle, 50 mg/kg p.o.
  muscle RNAseq differences in the cluster of HDAC inhibitors (BioNav): acts through non-HDAC-mediated pathways
[4]; wild-type mice, brain and muscle (Tables 2, 3)
  Reactome pathways of genes unique/responding to RVL002: MeCP2-pathway-mediated effect
MeCP2-/y mice [5]
  Rett cumulative severity score: delayed the progression in severity of behavioral and physiological phenotypes; also recorded: significantly reduce the severity of the Rett syndrome phenotypes

## C[C@@]1(C(=O)N[C@@H](CCC(=O)O)C(=O)O)CCCN1C(=O)CN [Trofinetide, trofinetide] (H-Gly-[αMeP]-Glu-OH)
Mecp2-null male mice [6]
  Rett cumulative severity score, head-to-head comparison: did not improve the cumulative severity score
Mecp2-null male mice [6]; trofinetide
  efficacy when starting treatment after the onset of symptoms: failed to show efficacy
RTT tadpole model
  reversal of RTT symptoms in RTT tadpole screen: showed efficacy, albeit lower than the predicted drugs

## O=C(CCCCCCC(=O)Nc1ccccc1)NO [Vorinostat, vorinostat]
[1]; C57BL/6J mice, 50 mg/kg intraperitoneally, mean
  Tmax: 0.3 h
[1]; mouse, in vivo, 50 mg/kg
  biodistribution, crossing the blood brain barrier: does not efficiently cross the blood brain barrier
[1]; mouse, in vivo, ip, 50 mg/kg
  AUC(0-inf): 640 ng·h/mL
  AUC(0-t): 632 ng·h/mL
  Cmax: 713 ng/mL
  half-life: 1.3 h
Tadpole proteome
  α- and β-tubulins, acetyl CoA synthetase 3, ribosome protein S6 as targets: significant, direct targets
[7]
  release profile after oral dosing: more sustained release of vorinostat at lower concentrations
Mecp2-null male mice [8]
  efficacy by Rett cumulative severity scoring system, 50 vs 100 mg/kg: better efficacy at 50 mg/kg
Mecp2-null male mice [8]; vorinostat vs trofinetide 75 mg/kg
  Y-maze performance, brain and GI tubulin acetylation normalization, inflammatory cytokine levels, colon goblet cells inflammation: outperformed trofinetide
[9]; MeCP2 deficit
  abnormal cilia morphology in the olfactory bulb: reversed
[9]; RTT models
  Ib4+ inflammatory cells in the GI tract: reduced
  a-tubulin acetylation in brain and elsewhere in the body: normalized
Mecp2-null male mice [6]; IP delivery
  efficacy when starting treatment after the onset of symptoms: failed to show efficacy
Mecp2-null male mice [6]
  Rett cumulative severity score, head-to-head comparison: effective improvement
Mecp2-null male mice [6]; oral dosing
  efficacy when starting treatment after the onset of symptoms: improved efficacy
RTT tadpoles (MeCP2 KD); RTT KD tadpoles, 5 μM
  reduction in average inner dish swimming compared to vehicle dosed KDs: 42%
RTT tadpoles (MeCP2 KD); RTT tadpoles
  swimming pattern of treated RTT tadpoles: patterns suggestive of darting and seizure are still observed
[4]; muscle tissues (FIG. 3D)
  overlap of vorinostat with RVL002 in HDAC associated pathways: 97.3%
microtubule
  microtubule polymerization: mild microtubule polymerization effects
RTT tadpole model
  reversal of RTT symptoms in RTT tadpole screen: stronger reversal of RTT symptoms at nontoxic concentrations

## ivermectin
Tadpole proteome
  α- and β-tubulins, acetyl CoA synthetase 3, ribosome protein S6 as targets: significant, direct targets
microtubule
  microtubule polymerization: mild microtubule polymerization effects
RTT tadpole model
  reversal of RTT symptoms in RTT tadpole screen: stronger reversal of RTT symptoms at nontoxic concentrations
